# “And” between values parts separate entries of the source, which are not always exact repeats. Identical values can stand only once.
# What was measured:
# [1] = molecular target: T1, Recombinant human Ku heterodimer (Homo sapiens, UniProt P12956+P13010); assay: Ku-DNA binding assay; conditions: Table 2, synthesized derivatives; several values in a cell = separate determinations; read-out: IC50
# T1 construct: made in house; host or cells: insect cells infected with recombinant baculovirus
# Excerpt: Ku is a DNA end-binding protein that is essential for the repair of DNA double strand breaks via the NHEJ pathway. The mechanism of DNA binding by Ku is via a toroid structure that encircles double-stranded DNA from a terminus.
# [2] = tested on: NHEJ activity in H460 cells; assay: Host cell reactivation assay of NHEJ mediated re-circularization of a linearized GFP plasmid; assay type: cell-based
# Excerpt: Disruption of Ku-DNA binding should result in inhibition of NHEJ activity, and to test this inhibition we will employ a host cell reactivation assay. This assay utilizes a linearized plasmid encoding a GFP gene that is transfected into the cell and expressed upon NHEJ mediated re-circularization of the plasmid (Sears, CA., 2012 and Woods, D., 2015). Co-transfection of a circular RFP plasmid accounts for differences in transfection efficiency, and NHEJ mediated repair of the GFP plasmid can be quantified by assessing the ratio of green: red cells. This assay will be used to assess the Ku inhibitor compounds in H460 and HEK-293 cells, and the data obtained from these experiments will allow us to determine the sensitivity of the chemical compounds and effect of Ku inhibition on NHEJ activity. As this is a cellular assay, we will also utilize this assay to do a series of time course experiments to determine the optimal time to deliver the inhibitor to cells in order to achieve maximum inhibition of NHEJ activity.
# [3] = tested on: NHEJ end joining in cell free extract from HEK 293; assay: In vitro NHEJ (end joining) assay with cell free extract; assay type: biochemical; conditions: linearized plasmid DNA (3 kbp), HEK 293 cell free extract pre-incubated with inhibitor, ATP; read-out: IC50 of inhibition of end joining
# Description: Radiolabeled linearized DNA was incubated with whole cell extracts with increasing amounts of inhibitor NG-02-132.
# A linearized plasmid DNA (3 kbp) is incubated with a cell free extract prepared from a NHEJ competent cell (HEK 293) and ATP. The results presented in FIG. 8 show the substrate alone in lane 1 and the degree of end joining control reactions as evidenced by the formation of plasmid multimers.
# T1 sequence (P12956 whole entry): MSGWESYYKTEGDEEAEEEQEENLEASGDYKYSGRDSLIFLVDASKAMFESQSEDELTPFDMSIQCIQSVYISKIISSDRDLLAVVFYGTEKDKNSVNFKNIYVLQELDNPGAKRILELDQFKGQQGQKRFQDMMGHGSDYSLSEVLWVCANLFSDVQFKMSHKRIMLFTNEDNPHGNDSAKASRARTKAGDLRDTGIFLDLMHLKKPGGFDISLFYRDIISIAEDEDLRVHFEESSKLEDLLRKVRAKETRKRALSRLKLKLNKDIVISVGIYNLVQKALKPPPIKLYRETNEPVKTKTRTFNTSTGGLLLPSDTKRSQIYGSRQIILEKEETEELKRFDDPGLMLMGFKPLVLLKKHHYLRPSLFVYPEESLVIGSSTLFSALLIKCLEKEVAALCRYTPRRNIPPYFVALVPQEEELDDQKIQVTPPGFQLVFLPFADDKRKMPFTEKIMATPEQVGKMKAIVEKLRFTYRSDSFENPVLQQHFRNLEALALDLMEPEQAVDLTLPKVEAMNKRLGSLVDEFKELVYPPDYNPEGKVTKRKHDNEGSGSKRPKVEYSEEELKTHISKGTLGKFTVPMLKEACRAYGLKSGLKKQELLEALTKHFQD
# T1 sequence (P13010 whole entry): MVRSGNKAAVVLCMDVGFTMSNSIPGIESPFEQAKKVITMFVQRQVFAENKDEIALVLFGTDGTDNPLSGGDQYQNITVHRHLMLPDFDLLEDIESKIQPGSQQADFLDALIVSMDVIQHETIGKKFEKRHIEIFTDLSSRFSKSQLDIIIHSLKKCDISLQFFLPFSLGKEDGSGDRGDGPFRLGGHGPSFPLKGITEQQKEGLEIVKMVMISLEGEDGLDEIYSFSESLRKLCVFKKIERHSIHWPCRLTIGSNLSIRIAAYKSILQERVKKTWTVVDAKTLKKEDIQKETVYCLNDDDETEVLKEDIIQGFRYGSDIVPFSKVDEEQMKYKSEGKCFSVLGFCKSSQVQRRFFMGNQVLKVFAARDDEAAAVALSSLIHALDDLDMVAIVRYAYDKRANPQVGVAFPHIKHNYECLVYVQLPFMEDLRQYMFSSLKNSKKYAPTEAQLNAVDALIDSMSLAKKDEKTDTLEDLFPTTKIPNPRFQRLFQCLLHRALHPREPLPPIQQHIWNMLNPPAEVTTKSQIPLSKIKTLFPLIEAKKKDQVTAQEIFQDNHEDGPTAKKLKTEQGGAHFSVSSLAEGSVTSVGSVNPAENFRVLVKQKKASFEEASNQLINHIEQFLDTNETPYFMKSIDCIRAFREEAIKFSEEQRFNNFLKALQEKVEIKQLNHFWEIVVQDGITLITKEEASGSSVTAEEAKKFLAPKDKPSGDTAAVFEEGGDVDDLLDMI
SMILES,IC50 [1],"NHEJ catalyzed repair events ([2]; H460 cells preincubated 2 hours prior to transfection of the reporters, measured 48 hours post transfection, without compound 26%, preliminary data)","reduction of NHEJ catalyzed repair events ([2]; H460 cells, 2 hours preincubation, 48 hours post transfection, from 26% to 17%)",IC50 [3]
"COc1cccc(NC(=O)c2cc(-c3ccc(/C=C4\C(=O)N(c5cccc(C(=O)O)c5)N=C4C)o3)ccc2Cl)c1 [NG-01-68/02-140/03-180, (Z)-3-(4-((5-(4-Chloro-3-((3-methoxyphenyl)carbamoyl)phenyl)furan-2-yl)methylene)-3-methyl-5-oxo-4,5-dihydro-1H-pyrazol-1-yl)benzoic acid]",6 µM and 15 µM and 4 µM (2×),17%,35%,
"COc1cccc(NC(=O)c2cc(-c3ccc(CC4C(=O)N(c5cccc(C(=O)O)c5)N=C4C)o3)ccc2Cl)c1 (centres unmarked) [NG-02-132/ NG-02-149, 3-(4-((5-(4-Chloro-3-((3-methoxyphenyl)carbamoyl)phenyl)furan-2-yl)methyl)-3-methyl-5-oxo-4,5-dihydro-1H-pyrazol-1-yl)benzoic acid]",1 µM (2×) and 4 µM and 6 µM,,,~15 µM

# Source: patent publication US11098033B2, “Ku inhibitors and their use” (INDIANA UNIVERSITY RESEARCH AND TECHNOLOGY CORPORATION, priority 2016, dated 2021)
